Experimental data reported in EP0734445B1, “CHIMERIC GENES AND METHODS FOR INCREASING THE LYSINE CONTENT OF THE SEEDS OF CORN, SOYBEAN AND RAPESEED PLANTS” (priority 1993, dated 1995).

Legend:
[1] = test system: Gif106M1 transformed with pBT436; test: Growth inhibition in M9 media; type: cell-based, E. coli; details: M9 media with arginine, isoleucine, ampicillin; reversed by threonine plus methionine
Experimental: Addition of lysine (or diaminopimelate which is readily converted to lysine in vivo) at a concentration of approximately 0.2 mM to the growth medium inhibits the growth of Gif106M1 transformed with pBT436. M9 media [see Sambrook et al. (1989) Molecular Cloning: a Laboratory Manual, Cold Spring Harbor Laboratory Press] supplemented with the arginine and isoleucine, required for Gif106M1 growth, and ampicillin, to maintain selection for the pBT436 plasmid, was used. This inhibition is reversed by addition of threonine plus methionine to the growth media. […] This property of pBT436-transformed Gif106M1 was used to select for mutations in lysC that encoded lysine-insensitive AKIII.

Corynebacterium DHDPS = target: T1, Corynebacterium DHDPS (Corynebacterium glutamicum, UniProt P19808, S2A); test: DHDPS enzyme activity assay; type: biochemical; details: lysine at 70 mM in the enzyme reaction mix
T1 construct: An 870 bp Nco I-EcoR I fragment from pFS766 containing the entire cordapA coding region; made in house; host or cells: E. coli BL21(DE3)/pFS766, supernatant of uninduced extract
Experimental: (§1) DHDPS enzyme activity was assayed as follows: Assay mix (for 10 X 1.0 mL assay tubes or 90 X 0.25 mL for microtiter dish); made fresh, just before use:
(§2) Color allowed to develop for 30-60 min. Precipitate spun down in eppendorf centrifuge. OD540 vs 0 min read as blank. For MicroAssay, aliquot 0.2 mL into microtiter well and read at OD530.
(§3) The specific activity of E. coli DHDPS in the supernatant fraction of induced extracts was about 50 OD540 units per minute per milligram protein in a 1.0 mL assay. E. coli DHDPS was sensitive to the presence of L-lysine in the assay. Fifty percent inhibition was found at a concentration of about 0.5 mM. For Corynebacterium DHDPS, the activity was measured in the supernatant fraction of uninduced extracts, rather than induced extracts. Enzyme activity was about 4 OD530 units per minute per milligram protein in a 0.25 mL assay.

E. coli DHDPS = target: T2, E. coli DHDPS (Escherichia coli, UniProt P0A6L2, F2V); test: DHDPS enzyme activity assay; type: biochemical
T2 construct: An 880 bp Nco I-Kpn I fragment from pBT443 containing the entire ecodapA coding region; made in house; host or cells: E. coli BL21(DE3)/pBT442, supernatant of IPTG-induced extract
Experimental: as §1, §2, §3

DE126 = test: Growth inhibition in synthetic medium; type: cell-based, E. coli
Text: To select clones that carried the LKR gene a specially designed E. coli host, DE126 was constructed. Construction of DE126 occurred in several stages. • (1) A generalized transducing stock of coliphage Plvir was produced by infection of a culture of TST1 [F^-, araD139, delta (argF-lac) 205, flb5301, ptsF25, relA1, rpsL150, malE52::Tn10, deoC1, λ^-] (E. coli Genetic Stock Center #6137) using a standard method (for Methods see J. Miller, Experiments in Molecular Genetics). • (2) This phage stock was used as a donor in a transductional cross (for Method see J. Miller, Experiments in Molecular Genetics) with strain GIF106M1 [F^-, arg-, ilvA296, lysC1001, thrA1101, metL1000, λ^-, rpsL9, malT1, xyl-7, mtl-2, thi1(?), supE44(?)] (E. coli Genetic Stock Center #5074) as the recipient. Recombinants were selected on rich medium [L supplemented with DAP] containing the antibiotic tetracycline. […] The genes malE and lysC are separated by less than 0.5 minutes, well within cotransduction distance. • (3) 200 tetracycline-resistant transductants were thoroughly phenotyped; appropriate fermentation and nutritional traits were scored. […] The phenotype of one clone was determined to be Ilv^+, Arg^-, TetR, Lysine-sensitive, male specific phage (MS2)-sensitive, consistent with the simple transfer of F'16 from AB1528 to DE125. […]

[2] = target: T3, AKIII encoded by mutant lysC genes (Escherichia coli, UniProt P08660, T352I); test: Inhibition of AKIII by lysine (mutant lysC genes); type: biochemical, E. coli; details: 15mM lysine; three of six mutant lysC plasmids
T3 construct: made in house; host or cells: E. coli (mutant derivatives of pBT436 selected in Gif106M1; the extract used is not described)
Experimental: (§4) Single colonies of Gif106M1 transformed with pBT436 were picked and resuspended in 200 µL of a mixture of 100 µL 1% lysine plus 100 µL of M9 media. The entire cell suspension containing 10^7-10^8 cells was spread on a petri dish containing M9 media supplemented with the arginine, isoleucine, and ampicillin. Sixteen petri dishes were thus prepared. From 1 to 20 colonies appeared on 11 of the 16 petri dishes. One or two (if available) colonies were picked and retested for lysine resistance and from this nine lysine-resistant clones were obtained. Plasmid DNA was prepared from eight of these and re-transformed into Gif106M1 to determine whether the lysine resistance determinant was plasmid-borne. Six of the eight plasmid DNAs yielded lysine-resistant colonies. Three of these six carried lysC genes encoding AKIII that was uninhibited by 15mM lysine, whereas wild type AKIII is 50% inhibited by 0.3-0.4 mM lysine and >90% inhibited by 1 mM lysine (see Example 2 for details).
The sequences of the three mutant lysC genes that encoded lysine-insensitive AK each differed from the wild type sequence by a single nucleotide, resulting in a single amino acid substitution in the protein. […] Thus, either of these single amino acid substitutions is sufficient to render the AKIII enzyme insensitive to lysine inhibition.

wild type AKIII = target: T4, wild type AKIII (Escherichia coli, UniProt P08660); test: Inhibition of AKIII by lysine; type: biochemical, E. coli
T4 construct: made in house; host or cells: E. coli (pBT436 in AK-deficient strain Gif106M1)
Experimental: as §4

T1 sequence (P19808 whole entry S2A, the tested form may be a part): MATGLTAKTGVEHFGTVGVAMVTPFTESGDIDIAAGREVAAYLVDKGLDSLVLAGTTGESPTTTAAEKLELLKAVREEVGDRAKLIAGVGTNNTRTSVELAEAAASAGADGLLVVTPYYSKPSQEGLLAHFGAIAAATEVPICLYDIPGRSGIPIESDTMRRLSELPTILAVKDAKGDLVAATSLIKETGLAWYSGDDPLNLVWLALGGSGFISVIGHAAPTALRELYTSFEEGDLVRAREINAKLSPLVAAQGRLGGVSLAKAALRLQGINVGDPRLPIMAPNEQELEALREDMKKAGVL
T4 sequence (P08660 2-449): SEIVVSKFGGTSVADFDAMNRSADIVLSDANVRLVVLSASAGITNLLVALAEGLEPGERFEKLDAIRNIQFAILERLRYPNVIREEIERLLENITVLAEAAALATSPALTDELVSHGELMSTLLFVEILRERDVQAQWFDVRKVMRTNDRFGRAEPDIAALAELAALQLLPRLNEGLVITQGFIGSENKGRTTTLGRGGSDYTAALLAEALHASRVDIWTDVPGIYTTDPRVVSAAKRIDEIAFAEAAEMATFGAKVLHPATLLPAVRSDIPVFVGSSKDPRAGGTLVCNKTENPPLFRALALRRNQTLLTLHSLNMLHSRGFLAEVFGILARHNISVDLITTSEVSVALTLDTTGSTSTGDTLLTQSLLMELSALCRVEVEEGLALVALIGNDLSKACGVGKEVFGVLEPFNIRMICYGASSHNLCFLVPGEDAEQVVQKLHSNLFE
T2 sequence (P0A6L2 whole entry F2V, the tested form may be a part): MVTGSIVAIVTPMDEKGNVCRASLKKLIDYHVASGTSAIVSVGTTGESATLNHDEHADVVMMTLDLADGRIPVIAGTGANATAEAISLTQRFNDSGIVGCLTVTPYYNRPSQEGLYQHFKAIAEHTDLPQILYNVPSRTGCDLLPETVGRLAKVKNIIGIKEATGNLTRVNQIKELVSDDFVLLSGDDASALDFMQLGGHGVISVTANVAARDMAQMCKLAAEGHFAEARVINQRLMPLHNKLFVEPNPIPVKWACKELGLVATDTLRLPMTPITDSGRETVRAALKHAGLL
T3 sequence (P08660 whole entry T352I): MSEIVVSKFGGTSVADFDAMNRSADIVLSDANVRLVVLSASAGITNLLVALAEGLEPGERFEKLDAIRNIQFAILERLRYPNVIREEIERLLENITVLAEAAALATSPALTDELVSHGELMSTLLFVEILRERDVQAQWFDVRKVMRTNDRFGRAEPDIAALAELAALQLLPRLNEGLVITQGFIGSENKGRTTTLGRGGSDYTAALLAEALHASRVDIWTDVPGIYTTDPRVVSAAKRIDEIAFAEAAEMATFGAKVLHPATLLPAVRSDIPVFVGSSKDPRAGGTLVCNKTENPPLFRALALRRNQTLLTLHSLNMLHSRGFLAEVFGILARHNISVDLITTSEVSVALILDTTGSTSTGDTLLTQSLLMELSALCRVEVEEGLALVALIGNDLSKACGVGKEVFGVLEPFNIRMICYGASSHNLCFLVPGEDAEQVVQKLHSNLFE

Compound	concentration in the growth medium that inhibits growth [1]	inhibition by L-lysine (Corynebacterium DHDPS)	inhibition by L-lysine (Corynebacterium DHDPS; listed as lysine)	IC50 (E. coli DHDPS)	fold less sensitive to inhibition by lysine than a typical plant enzyme, e.g., wheat DHDPS (E. coli DHDPS)	concentration of L-lysine that inhibits growth (DE126)	inhibition by lysine [2]	inhibited (wild type AKIII; 1 mM lysine)	IC50 (wild type AKIII; read-out: 50% inhibited, lysine concentration)
NC(CCCC(N)C(=O)O)C(=O)O (stereo not shown) [diaminopimelate]	approximately 0.2 mM								
NCCCC[C@H](N)C(=O)O [L-lysine]	approximately 0.2 mM	not inhibited at all	unaffected	~500 µM	at least 20 fold	20 µg/mL	uninhibited	> 90%	300 to 400 µM
